From patent publication US10011814B2, “Salt formulations for the fermentation of marine microorganisms” (Triphase Research and Development I Corp., priority 2006, dated 2018)
Where two headings read alike, the source gives them in different places.

How the values were obtained:
[1] = system: Salinispora tropica CNB476; conditions: CNB476, day 6 production culture
Method: (§1) The first seed cultures (100 mL medium) in 500-mL Erlenmeyer flasks were incubated for 96 hours before inoculating 5 mL of the first seed culture into the second seed medium with the same composition as the first seed medium. The second seed cultures (100 mL medium in 500-mL Erlenmeyer flask) were incubated for 48 hours before inoculating 5 mL of the second seed culture into the production medium (100 mL in a 500-mL Erlenmeyer flask).
(§2) Per liter of DI H2O, the production medium consisted of: 10 g Starch, 4 g Hy Soy, 4 g Yeast Extract, 1 g CaCO3, 40 mg Fe2(SO4)3, and 100 mg KBr. The production medium was then supplemented with a chemically defined salt formulation consisted of the following common salt components along with different levels of NaCl:
(§3) The NaCl levels used were 0, 5, 10, 15, 20, 24 and 30 g/L. About […], sterile XAD-7 resin slurry was added to the production cultures in a final concentration of 20 g/L. The production culture was then further incubated and harvested at various time points to determine productivity.

[2] = system: Salinispora tropica NPS021184; conditions: NPS21184, day 6 production culture
Method: as §1, §2, §3

[3] = system: Salinispora tropica CNB440; conditions: CNB440, day 6 production culture
Method: as §1, §2, §3

SMILES: [Cl-].[Na+] [NaCl]
- Packed Cell Volume ([1]; NaCl 0 g/L): 0%
- Packed Cell Volume ([1]; NaCl 5 g/L): 2%
- Packed Cell Volume ([1]; NaCl 10 g/L): 5%
- Packed Cell Volume ([1]; NaCl 15 g/L): 5%
- Packed Cell Volume ([1]; NaCl 20 g/L): 6%
- Packed Cell Volume ([1]; NaCl 24 g/L): 6%
- Packed Cell Volume ([1]; NaCl 30 g/L): 6%
- Packed Cell Volume ([2]; NaCl 0 g/L): 0%
- Packed Cell Volume ([2]; NaCl 5 g/L): 6%
- Packed Cell Volume ([2]; NaCl 10 g/L): 6%
- Packed Cell Volume ([2]; NaCl 15 g/L): 6%
- Packed Cell Volume ([2]; NaCl 20 g/L): 5%
- Packed Cell Volume ([2]; NaCl 24 g/L): 5%
- Packed Cell Volume ([2]; NaCl 30 g/L): 5%
- Packed Cell Volume ([3]; NaCl 0 g/L): 0%
- Packed Cell Volume ([3]; NaCl 5 g/L): 5%
- Packed Cell Volume ([3]; NaCl 10 g/L): 5%
- Packed Cell Volume ([3]; NaCl 15 g/L): 4%
- Packed Cell Volume ([3]; NaCl 20 g/L): 5%
- Packed Cell Volume ([3]; NaCl 24 g/L): 5%
- Packed Cell Volume ([3]; NaCl 30 g/L): 5%
